Measured values as given in US11135234B2, “Effective aminoglycoside antibiotic for multidrug-resistant bacteria” (MICROBIAL CHEMISTRY RESEARCH FOUNDATION, priority 2015, dated 2021).
Converted amounts (≈) assume the structure as drawn.

Assays:
P. aeruginosa PAO1 = test: MIC, agar plate dilution method, P. aeruginosa PAO1; format: cell-based, Pseudomonas aeruginosa; details: for MIC: Pseudomonas aeruginosa, PAO1, P. aeruginosa PAO1, Sensitive bacterium, read-out: minimal inhibitory concentration (MIC); for minimal inhibitory concentration (MIC): P. aeruginosa PAO1, Sensitive bacterium
Procedure, shortened: (§1)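 Minimal inhibitory concentration (μg/mL) was determined by agar plate dilution following the Japan Society of Chemotherapy method.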

S. marcescens TH-0447 = test: MIC, agar plate dilution method, S. marcescens TH-0447; format: cell-based, Serratia marcescens; details: for MIC: Serratia marcescens, TH0447, S. marcescens TH-0447, AMK-resistant, read-out: minimal inhibitory concentration (MIC); for minimal inhibitory concentration (MIC): S. marcescens TH-0447, AMK-resistant
Procedure, shortened: as §1

S. aureus RN4220 = test: MIC, agar plate dilution method, S. aureus RN4220; format: cell-based, Staphylococcus aureus; details: for MIC: Staphylococcus aureus, RN4220, S. aureus RN4220, Sensitive bacterium, read-out: minimal inhibitory concentration (MIC); for minimal inhibitory concentration (MIC): S. aureus RN4220, Sensitive bacterium
Procedure, shortened: as §1

P. aeruginosa PAO1/GN315 = test: MIC, agar plate dilution method, P. aeruginosa PAO1/GN315; format: cell-based, Pseudomonas aeruginosa; details: for MIC: Pseudomonas aeruginosa, read-out: minimal inhibitory concentration (MIC), P. aeruginosa PAO1/GN315, AMK-resistant; for minimal inhibitory concentration (MIC): P. aeruginosa PAO1/GN315, AMK-resistant
Procedure, shortened: as §1

[1] = system: K. pneumoniae ATCC BAA-2146; test: MIC, agar plate dilution method, K. pneumoniae ATCC BAA-2146; format: cell-based, Klebsiella pneumoniae; details: for MIC: Klebsiella pneumoniae, ATCCBAA2146, K. pneumoniae ATCC BAA-2146, NDM-producing strain, read-out: minimal inhibitory concentration (MIC); for minimal inhibitory concentration (MIC): K. pneumoniae ATCC BAA-2146, NDM-producing strain
Procedure, shortened: as §1

[2] = system: K. pneumoniae ATCC BAA-1705; test: MIC, agar plate dilution method, K. pneumoniae ATCC BAA-1705; format: cell-based, Klebsiella pneumoniae; details: for MIC: Klebsiella pneumoniae, ATCCBAA1705, K. pneumoniae ATCC BAA-1705, KPC-producing strain, read-out: minimal inhibitory concentration (MIC); for minimal inhibitory concentration (MIC): K. pneumoniae ATCC BAA-1705, KPC-producing strain
Procedure, shortened: as §1

E. coli JM109/pMW218 = test: MIC, agar plate dilution method, E. coli JM109/pMW218; format: cell-based, Escherichia coli; details: for MIC: Escherichia coli, JM109/PMW218, E. coli JM109/pMW218, Sensitive bacterium, read-out: minimal inhibitory concentration (MIC); for minimal inhibitory concentration (MIC): E. coli JM109/pMW218, Sensitive bacterium
Procedure, shortened: as §1

S. aureus MF490 = test: MIC, agar plate dilution method, S. aureus MF490; format: cell-based, Staphylococcus aureus; details: for MIC: Staphylococcus aureus, MRSA, read-out: minimal inhibitory concentration (MIC); for minimal inhibitory concentration (MIC): S. aureus MF490, MRSA
Procedure, shortened: as §1

S. marcescens GN6944 = test: MIC, agar plate dilution method, S. marcescens GN6944; format: cell-based, Serratia marcescens; details: S. marcescens GN6944, GM-resistant; for MIC: Serratia marcescens, read-out: minimal inhibitory concentration (MIC)
Procedure, shortened: as §1

P. aeruginosa MSC17707 = test: MIC, agar plate dilution method, P. aeruginosa MSC17707; format: cell-based, Pseudomonas aeruginosa; details: for MIC: Pseudomonas aeruginosa, MSC17707, P. aeruginosa MSC17707, AMK-resistant, read-out: minimal inhibitory concentration (MIC); for minimal inhibitory concentration (MIC): P. aeruginosa MSC17707, AMK-resistant
Procedure, shortened: as §1

S. aureus RN4220/pMS520 = test: MIC, agar plate dilution method, S. aureus RN4220/pMS520; format: cell-based, Staphylococcus aureus; details: for MIC: Staphylococcus aureus, MRSA, read-out: minimal inhibitory concentration (MIC), S. aureus RN4220/pMS520, MRSA; for minimal inhibitory concentration (MIC): S. aureus RN4220/pMS520, MRSA
Procedure, shortened: as §1

P. aeruginosa MSC01035 = test: MIC, agar plate dilution method, P. aeruginosa MSC01035; format: cell-based, Pseudomonas aeruginosa; details: P. aeruginosa MSC01035, ABK-resistant; for MIC: Pseudomonas aeruginosa, read-out: minimal inhibitory concentration (MIC)
Procedure, shortened: as §1

E. faecium ATCC19434 = test: MIC, agar plate dilution method, E. faecium ATCC19434; format: cell-based, Enterococcus faecium; details: for MIC: Enterococcus faecium, ATCC19434, E. faecium ATCC19434, read-out: minimal inhibitory concentration (MIC); for minimal inhibitory concentration (MIC): E. faecium ATCC19434
Procedure, shortened: as §1

[3] = system: A. baumannii ATCC BAA-1710; test: MIC, agar plate dilution method, A. baumannii ATCC BAA-1710; format: cell-based, Acinetobacter baumannii; details: for MIC: Acinetobacter baumannii, ATCCBAA1710, A. baumannii ATCC BAA-1710, MDRA, read-out: minimal inhibitory concentration (MIC); for minimal inhibitory concentration (MIC): A. baumannii ATCC BAA-1710, MDRA
Procedure, shortened: as §1

`CNC1C(O[C@H]2OC(CO)[C@@H](N)[C@H](N)C2O)O[C@H]2CC(N)[C@@H](O[C@@H]3C(N)C[C@@H](N)C(O)[C@H]3O)OC2C1O` (stereo partly shown) [Compound G8, 3″-amino-3″-deoxyapramycin] gave an MIC (P. aeruginosa PAO1) of 8 mg/L (≈ 14.9 µM), an MIC (S. marcescens TH-0447) of 16 mg/L (≈ 29.7 µM) and an MIC (S. aureus RN4220) of 8 mg/L (≈ 14.9 µM). The MIC (P. aeruginosa PAO1/GN315) was 16 mg/L (≈ 29.7 µM), the MIC [1] was 4 mg/L (≈ 7.43 µM) and the MIC [2] was 4 mg/L (≈ 7.43 µM). For the same compound, the MIC (E. coli JM109/pMW218) was 2 mg/L (≈ 3.71 µM), the MIC (S. aureus MF490) was 32 mg/L (≈ 59.4 µM) and the MIC (S. marcescens GN6944) was 16 mg/L (≈ 29.7 µM). For the same compound, the MIC (P. aeruginosa MSC17707) was 16 mg/L (≈ 29.7 µM), the MIC (S. aureus RN4220/pMS520) was 8 mg/L (≈ 14.9 µM) and the MIC (P. aeruginosa MSC01035) was 16 mg/L (≈ 29.7 µM). It also gave an MIC (E. faecium ATCC19434) of 32 mg/L (≈ 59.4 µM) and an MIC [3] of 16 mg/L (≈ 29.7 µM).
For `CN[C@@H]1[C@@H](O[C@H]2O[C@H](CO)[C@@H](N)[C@@H](O)[C@H]2O)O[C@H]2C[C@@H](N)[C@@H](O[C@H]3[C@H](O)[C@@H](O)[C@H](N)C[C@@H]3N)O[C@@H]2[C@@H]1O` [Compound H3, 3″-epiapramycin], the “minimal inhibitory concentration (MIC)” value (P. aeruginosa PAO1) was 8 mg/L (≈ 14.8 µM), the “minimal inhibitory concentration (MIC)” value (S. marcescens TH-0447) was 8 mg/L (≈ 14.8 µM) and the “minimal inhibitory concentration (MIC)” value (S. aureus RN4220) was 4 mg/L (≈ 7.41 µM). For the same compound, the “minimal inhibitory concentration (MIC)” value (P. aeruginosa PAO1/GN315) was 8 mg/L (≈ 14.8 µM), the “minimal inhibitory concentration (MIC)” value [1] was 2 mg/L (≈ 3.71 µM) and the “minimal inhibitory concentration (MIC)” value [2] was 2 mg/L (≈ 3.71 µM). For the same compound, the “minimal inhibitory concentration (MIC)” value (E. coli JM109/pMW218) was 2 mg/L (≈ 3.71 µM), the “minimal inhibitory concentration (MIC)” value (S. aureus MF490) was 8 mg/L (≈ 14.8 µM) and the “minimal inhibitory concentration (MIC)” value (S. marcescens GN6944) was 8 mg/L (≈ 14.8 µM). The “minimal inhibitory concentration (MIC)” value (P. aeruginosa MSC17707) was 8 mg/L (≈ 14.8 µM), the “minimal inhibitory concentration (MIC)” value (S. aureus RN4220/pMS520) was 4 mg/L (≈ 7.41 µM) and the “minimal inhibitory concentration (MIC)” value (P. aeruginosa MSC01035) was 8 mg/L (≈ 14.8 µM). For the same compound, the “minimal inhibitory concentration (MIC)” value (E. faecium ATCC19434) was 16 mg/L (≈ 29.7 µM) and the “minimal inhibitory concentration (MIC)” value [3] was 8 mg/L (≈ 14.8 µM).
For `CNC1C(OC2OC(CO)C(N)C(O)C2O)OC2CC(N)C(OC3C(N)CC(N)C(O)C3O)OC2C1O` (stereo not shown) [Compound I3, 2″,3″-diepiapramycin], the “minimal inhibitory concentration (MIC)” value (P. aeruginosa PAO1) was 16 mg/L (≈ 29.7 µM), the “minimal inhibitory concentration (MIC)” value (S. marcescens TH-0447) was 32 mg/L (≈ 59.3 µM) and the “minimal inhibitory concentration (MIC)” value (S. aureus RN4220) was 8 mg/L (≈ 14.8 µM). For the same compound, the “minimal inhibitory concentration (MIC)” value (P. aeruginosa PAO1/GN315) was 32 mg/L (≈ 59.3 µM), the “minimal inhibitory concentration (MIC)” value [1] was 4 mg/L (≈ 7.41 µM) and the “minimal inhibitory concentration (MIC)” value [2] was 4 mg/L (≈ 7.41 µM). The “minimal inhibitory concentration (MIC)” value (E. coli JM109/pMW218) was 4 mg/L (≈ 7.41 µM), the “minimal inhibitory concentration (MIC)” value (S. aureus MF490) was 32 mg/L (≈ 59.3 µM) and the “minimal inhibitory concentration (MIC)” value (S. marcescens GN6944) was 16 mg/L (≈ 29.7 µM). The “minimal inhibitory concentration (MIC)” value (P. aeruginosa MSC17707) was 32 mg/L (≈ 59.3 µM), the “minimal inhibitory concentration (MIC)” value (S. aureus RN4220/pMS520) was 8 mg/L (≈ 14.8 µM) and the “minimal inhibitory concentration (MIC)” value (P. aeruginosa MSC01035) was 64 mg/L (≈ 119 µM). For the same compound, the “minimal inhibitory concentration (MIC)” value (E. faecium ATCC19434) was 32 mg/L (≈ 59.3 µM) and the “minimal inhibitory concentration (MIC)” value [3] was 16 mg/L (≈ 29.7 µM).
In the case of `CNC1C(O[C@H]2OC(CF)[C@@H](N)[C@H](O)C2O)O[C@H]2CC(N)[C@@H](O[C@@H]3C(N)C[C@@H](N)C(O)[C@H]3O)OC2C1O` (stereo partly shown) [Compound J4, 6″-deoxy-6″-fluoroapramycin], the MIC (P. aeruginosa PAO1) is reported as 8 mg/L (≈ 14.8 µM), the MIC (S. marcescens TH-0447) is reported as 16 mg/L (≈ 29.5 µM) and the MIC (S. aureus RN4220) is reported as 8 mg/L (≈ 14.8 µM). It also gave an MIC (P. aeruginosa PAO1/GN315) of 8 mg/L (≈ 14.8 µM), an MIC [1] of 2 mg/L (≈ 3.69 µM) and an MIC [2] of 2 mg/L (≈ 3.69 µM). It also gave an MIC (E. coli JM109/pMW218) of 2 mg/L (≈ 3.69 µM), an MIC (S. aureus MF490) of 16 mg/L (≈ 29.5 µM) and an MIC (S. marcescens GN6944) of 16 mg/L (≈ 29.5 µM). For the same compound, the MIC (P. aeruginosa MSC17707) was 16 mg/L (≈ 29.5 µM), the MIC (S. aureus RN4220/pMS520) was 4 mg/L (≈ 7.39 µM) and the MIC (P. aeruginosa MSC01035) was 16 mg/L (≈ 29.5 µM). For the same compound, the MIC (E. faecium ATCC19434) was 32 mg/L (≈ 59.1 µM) and the MIC [3] was 32 mg/L (≈ 59.1 µM).
With `CN[C@@H]1[C@@H](O[C@H]2O[C@H](C)[C@@H](N)C[C@H]2O)O[C@H]2C[C@@H](N)[C@@H](O[C@H]3[C@H](O)[C@@H](O)[C@H](N)C[C@@H]3N)O[C@@H]2[C@@H]1O` [Compound K4, 3″,6″-dideoxyapramycin] the “minimal inhibitory concentration (MIC)” value (P. aeruginosa PAO1) was 8 mg/L (≈ 15.8 µM), the “minimal inhibitory concentration (MIC)” value (S. marcescens TH-0447) was 8 mg/L (≈ 15.8 µM) and the “minimal inhibitory concentration (MIC)” value (S. aureus RN4220) was 2 mg/L (≈ 3.94 µM). For the same compound, the “minimal inhibitory concentration (MIC)” value (P. aeruginosa PAO1/GN315) was 8 mg/L (≈ 15.8 µM), the “minimal inhibitory concentration (MIC)” value [1] was 1 mg/L (≈ 1.97 µM) and the “minimal inhibitory concentration (MIC)” value [2] was 2 mg/L (≈ 3.94 µM). For the same compound, the “minimal inhibitory concentration (MIC)” value (E. coli JM109/pMW218) was 1 mg/L (≈ 1.97 µM), the “minimal inhibitory concentration (MIC)” value (S. aureus MF490) was 8 mg/L (≈ 15.8 µM) and the “minimal inhibitory concentration (MIC)” value (S. marcescens GN6944) was 4 mg/L (≈ 7.88 µM). For the same compound, the “minimal inhibitory concentration (MIC)” value (P. aeruginosa MSC17707) was 16 mg/L (≈ 31.5 µM), the “minimal inhibitory concentration (MIC)” value (S. aureus RN4220/pMS520) was 2 mg/L (≈ 3.94 µM) and the “minimal inhibitory concentration (MIC)” value (P. aeruginosa MSC01035) was 16 mg/L (≈ 31.5 µM). The “minimal inhibitory concentration (MIC)” value (E. faecium ATCC19434) was 8 mg/L (≈ 15.8 µM) and the “minimal inhibitory concentration (MIC)” value [3] was 16 mg/L (≈ 31.5 µM).
